In patent publication US20230321462A1, “Method for Improving Olfactory Sensitivity” (Kao Corporation, priority 2019, published 2023):

Key:
[1] = biological target: T1, OR4S2 (Homo sapiens, UniProt Q8NH73); experiment: Luciferase reporter gene assay, response of OR4S2 to odor substances; format: cell-based; conditions: OR4S2-expressing HEK293 cells, luciferase fold increase, FIG. 4, 5, 9
T1 construct: Flag-Rho tag (N); expressed in transfected cells; host or cells: HEK293
T1 sequence (Q8NH73 1-311): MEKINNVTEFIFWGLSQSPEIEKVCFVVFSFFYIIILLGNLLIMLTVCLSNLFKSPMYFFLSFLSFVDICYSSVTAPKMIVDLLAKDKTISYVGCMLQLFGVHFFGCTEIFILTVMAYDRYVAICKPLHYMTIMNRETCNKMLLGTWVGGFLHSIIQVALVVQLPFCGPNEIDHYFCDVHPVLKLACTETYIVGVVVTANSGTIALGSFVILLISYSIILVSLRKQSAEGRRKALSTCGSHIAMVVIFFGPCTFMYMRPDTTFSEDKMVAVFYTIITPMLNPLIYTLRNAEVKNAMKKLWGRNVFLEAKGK
Source text: (§1) Genes encoding the human olfactory receptors OR10G4, OR4S2, OR5P3, OR2W1, and OR1A1 (which are as set forth in SEQ ID NOs: 1, 2, 3, 4, and 5, respectively) were cloned. Each gene was cloned by PCR using human genomic DNA female (G1521: Promega) as a template, based on the sequence information registered in GenBank. Each gene amplified by PCR was incorporated into a pENTR vector (Invitrogen) in accordance with the manual, and by utilizing the NotI/AscI site present on the pENTR vector, it was recombined to the NotI/AscI site produced downstream of a Flag-Rho tag sequence on a pME18S vector.
HEK293 cells in which any one of the above-described human olfactory receptors was allowed to express, were produced. A reaction solution having the composition shown in Table 2 was prepared, and was then left to stand in a clean bench for 15 minutes. The resultant was added into each well of a 96-well plate (BD). […]
(§2) An olfactory receptor expressed in HEK293 cells conjugated with Gαs existing in the cells to activate adenylate cyclase, so as to increase the amount of cAMP in the cells. For the receptor response measurement in the present study, a luciferase reporter gene assay was applied, and an increase in the intracellular amount of cAMP was monitored as a luminescence value derived from a firefly luciferase gene (fluc2P-CRE-hygro). […]
The medium was removed from the culture produced in the above 3), and an odor substance solution was then added thereto. […] The activity of luciferase was measured using Dual-Glo™ luciferase assay system (Promega) in accordance with the operating manual of the product. The value fLuc/hRluc was calculated by dividing the value of luminescence derived from firefly luciferase by the value of luminescence derived from Renilla luciferase. A fold increase was calculated by dividing the value fLuc/hRluc induced by cells stimulated with an odor substance, by the value fLuc/hRluc induced by cells not stimulated with an odor substance, and the obtained value was used as an indicator of response intensity. […]

[2] = test system: olfactory sensitivity; experiment: Sensory test: detection threshold concentration of odor substances before and after oral care; format: in vivo, human; conditions: for olfactory sensitivity (detection threshold concentration): 1 hour after oral care vs before oral care
Experimental: Olfactory sensitivity before and after oral care was evaluated according to a sensory test. The experimental scheme is shown in FIG. 6A, and is also described in detail below. The sensory test was carried out with 14 subjects. On the test day, the subjects were prohibited to eat and drink anything after getting up, and were also prohibited to do oral care including brushing of teeth. The test was started between 8:00 am to 9:30 am. First, exhaled breath was collected from the subjects. Subsequently, the detection threshold concentration of each odor substance was measured according to the sensory test. Thereafter, the subjects ate designated breakfast, and then performed oral care (the brushing of teeth using commercially available toothbrush and dentifrice for 5 minutes, and then, the washing of the mouth using commercially available mouth wash for 30 seconds). At individual time points of 10 minutes and 1 hour after the oral care, exhaled breath was collected from the subjects and the detection threshold concentration of each odor substance was measured.
1 mL of an odor substance solution placed in a vial bottle (Maruemu, No. 2) was used as an odor sample. As such odor substance solutions, a 20-step 2-fold dilution series was prepared regarding each of muscone, indole, and furfuryl mercaptan (highest concentrations: 1000 ppm, 1 mM, and 10 ppb, respectively). Mineral oil (Sigma-Aldrich) was used as a solvent in all cases. As a blank, a vial containing 1 mL of mineral oil was used.
A single test was carried out on two types of odor substance among muscone, indole, and furfuryl mercaptan. […] The test participants smelled the odors contained in the vials and tried to choose the vial containing an odor solution. The test was started with an odor sample having the third low concentration. When the subject’s selection was incorrect or the subject could not choose the vial even once, the same trial was carried out using an odor sample having one step higher concentration. When the subject’ selection was correct two times in a row, the same trial was carried out using an odor sample having one step lower concentration. When the subject’ selection was correct two times in a row using an odor sample with a new concentration, the subject was tested using an odor sample having further one step lower concentration. When the subject could not choose the correct vial even once, the subject was tested using an odor sample having one step higher concentration. Switching from a high concentration to a low concentration, and from a low concentration to a high concentration, was recorded 7 times in total, and the mean value of the concentrations measured 4 times in the second half was defined as a detection threshold concentration. The detection threshold concentrations of each odor substance before and after oral care were compared with each other according to the Wilcoxon signed-rank test, and the p value was calculated. The statistical analysis was carried out using R Software (Ver.3.6.0).

[3] = test system: olfactory sensitivity to 3M3SH; experiment: Sensory test: odor sensory intensity to 3M3SH with 3M3SH applied to armpit portions of clothes; format: in vivo, human; conditions: fifteen minutes after application of 3M3SH onto the armpit portions, two subjects, FIG. 3
Experimental: 3M3SH was used as an underarm odor-causing substance. A sensory evaluation sample was prepared by adding one cotton ball (Hakujuji Co., Ltd., No. 10) into a 13.5-mL vial bottle (Maruemu No. 5), and then adding 10 µL of a 3M3SH solution with each diluted concentration thereto. For the 3M3SH solution, mineral oil (Sigma-Aldrich) was used as a solvent, and the concentrations of the solution were set to be 0 µM, 1 µM, 3 µM, 10 µM, 30 µM, 100 µM, and 300 µM.
The sensory test was carried out with two subjects. The subjects wore a commercially available white cloth (material: 65% polyester and 35% cotton). The subjects first smelled the above-described samples in the order from a low concentration sample to a high concentration sample, and odor sensory intensity which the subjects felt was then evaluated. The evaluation was carried out in 9 stages from “0: Not felt” to “4: Unbearably strongly felt,” at intervals of 0.5. Thereafter, the 3M3SH ethanol solution (3 µg/mL) was added in an amount of 10 µL each onto both of the armpit portions of each subject’ clothes (white clothes). Fifteen minutes after addition of this solution, the above-described sensory evaluation was carried out again. […]

[4] = biological target: T2, OR10G4 (Homo sapiens, UniProt Q8NGN3); experiment: Luciferase reporter gene assay, response of OR10G4 to odor substances; format: cell-based; conditions: OR10G4-expressing HEK293 cells, luciferase fold increase, FIG. 1
T2 construct: Flag-Rho tag (N); expressed in transfected cells; host or cells: HEK293
T2 sequence (Q8NGN3 1-311): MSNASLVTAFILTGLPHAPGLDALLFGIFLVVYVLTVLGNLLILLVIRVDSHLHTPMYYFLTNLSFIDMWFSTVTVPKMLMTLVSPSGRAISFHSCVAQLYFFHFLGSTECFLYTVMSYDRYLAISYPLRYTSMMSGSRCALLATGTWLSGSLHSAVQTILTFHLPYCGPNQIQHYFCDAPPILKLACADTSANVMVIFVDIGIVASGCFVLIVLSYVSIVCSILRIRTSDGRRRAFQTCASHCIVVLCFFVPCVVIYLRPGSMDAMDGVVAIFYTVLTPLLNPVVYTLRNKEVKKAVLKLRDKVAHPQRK
Source text: as §1, with “vector. […]” for “vector.”
as §2
The medium was removed from the culture produced in the above 3), and an odor substance solution was then added thereto. […] The activity of luciferase was measured using Dual-Glo™ luciferase assay system (Promega) in accordance with the operating manual of the product. […]

[5] = biological target: T3, OR5AN1 (Homo sapiens, UniProt Q8NGI8); conditions: Patent Literature 1; cited from earlier work
T3 sequence (Q8NGI8 1-311): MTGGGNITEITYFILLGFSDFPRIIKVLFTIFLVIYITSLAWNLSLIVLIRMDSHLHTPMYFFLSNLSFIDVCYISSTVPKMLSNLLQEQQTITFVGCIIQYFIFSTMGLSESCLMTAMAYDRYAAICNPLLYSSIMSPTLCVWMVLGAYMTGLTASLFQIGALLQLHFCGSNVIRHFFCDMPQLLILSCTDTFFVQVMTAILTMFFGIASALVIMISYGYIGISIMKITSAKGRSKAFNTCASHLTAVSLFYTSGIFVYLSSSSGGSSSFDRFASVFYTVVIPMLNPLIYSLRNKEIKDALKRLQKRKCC

| SMILES | response of OR4S2 to odor substances [1] | olfactory sensitivity (detection threshold concentration) ([2]; FIG. 7A) | response of OR10G4 to odor substances [4] | other results |
| --- | --- | --- | --- | --- |
| SCc1ccco1 [furfuryl mercaptan, Furfuryl mercaptan] | is activated by | statistically significantly improved |  |  |
| CCCC(C)(S)CCO (stereo not drawn) [3M3SH, 3-Methyl-3-sulfanylhexan-1-ol] |  |  |  | odor intensity of 3M3SH felt from the sample [3]: reduced |
| COc1ccccc1O [guaiacol, Guaiacol] |  |  | activate OR10G4 |  |
| c1ccc2[nH]ccc2c1 [indole, Indole] | activate OR4S2 | statistically significantly improved |  | detection threshold concentration relative to before oral care ([2]; 10 minutes after the oral care, FIG. 7B): 1/16; detection threshold concentration relative to before oral care ([2]; 1 hour after the oral care, on average, FIG. 7A): ⅛ |
| CCOc1cc(C=O)ccc1O [ethyl vanillin, Ethyl vanillin] |  |  | activate OR10G4 |  |
| C[C@@H]1CCCCCCCCCCCCC(=O)C1 [muscone, Muscone] | is not activated by | no statistically significant difference |  | recognition by OR5AN1 [5]: recognized, mainly mediated by OR5AN1 |
